These results are taken from ChEMBL document CHEMBL5634117 (Eur J Med Chem, 2023).

Active and inactive are the calls of the source. The calls are words filed in the database; no cut-off is given here.

Data set [1] concerns RXF 393. Nature of the data set: Growth inhibition of human RXF 393 cells assessed as reduction in cell viability measured after 48 hrs by SRB assay. Format: functional.
The test system of data set [2] is K562. Put plainly: Induction of cell cycle arrest in human K562 cells assessed as accumulation of cells at G0/G1 phase at 1.28 uM measured after 24 hrs by PI staining based flow cytometry analysis (reference value: 46.72%). The format is functional.
For data set [3], the system named is NCI-H460. Nature of the data set: Growth inhibition of human NCI-H460 cells assessed as reduction in cell viability measured after 48 hrs by SRB assay. The format is functional.
Data set [4] is described as follows: Cytotoxicity against African green monkey Vero cells assessed as decrease in number of viable cells at 30 uM measured after 48 hrs by SRB assay relative to control. As to conditions: chlorocebus sabaeus. Format: toxicity, cell-based.
Data set [5] has as its system K562. Nature of the data set: Induction of cell cycle arrest in human K562 cells assessed as accumulation of cells at G0/G1 phase at 0.64 uM measured after 24 hrs by PI staining based flow cytometry analysis (reference value: 46.72%). The format is functional.
The test system of data set [6] is K562. Nature of the data set: Induction of autophagy in human K562 cells assessed as increase in beclin-1 level at 1.28 uM measured after 24 hrs by Western blotting analysis. The format is functional, cell-based.
The test system of data set [7] is SK-OV-3. Nature of the data set: Growth inhibition of human SK-OV-3 cells assessed as reduction in cell viability measured after 48 hrs by SRB assay. Format: functional.
The test system of data set [8] is CCRF-CEM. Nature of the data set: Growth inhibition of human CCRF-CEM cells assessed as reduction in cell viability measured after 48 hrs by SRB assay. The format is functional.
Data set [9] deals with NCI-H322M. Put plainly: Growth inhibition of human NCI-H322M cells assessed as reduction in cell viability measured after 48 hrs by SRB assay. The format is functional.
Data set [10] relates to HCC 2998. Nature of the data set: Growth inhibition of human HCC 2998 cells assessed as reduction in cell viability measured after 48 hrs by SRB assay. Format: functional.
For data set [11], the system named is A498. Put plainly: Growth inhibition of human A498 cells assessed as reduction in cell viability measured after 48 hrs by SRB assay. Format: functional.
The subject of data set [12] is K562. Put plainly: Induction of cell cycle arrest in human K562 cells assessed as accumulation of cells at SubG1 phase at 0.64 uM measured after 24 hrs by PI staining based flow cytometry analysis (reference value: 2.21%). The format is functional.
Data set [13] has as its system 786-0. Nature of the data set: Growth inhibition of human 786-0 cells assessed as reduction in cell viability measured after 48 hrs by SRB assay. The format is functional.
Data set [14] deals with T1, Mitogen-activated protein kinase 8 (Homo sapiens, UniProt P45983). Put plainly: Inhibition of human JNK1 at 10 uM in presence of ATP relative to control.
For data set [15], the system named is HCT-15. Nature of the data set: Growth inhibition of human HCT-15 cells assessed as reduction in cell viability measured after 48 hrs by SRB assay. Format: functional.
The target of data set [16] is T1, Mitogen-activated protein kinase 8. Put plainly: Inhibition of human JNK1 in presence of ATP.
The test system of data set [17] is K562. Put plainly: Growth inhibition of human K562 cells assessed as reduction in cell viability measured after 48 hrs by SRB assay. Format: functional.
Data set [18] concerns OVCAR-8. Put plainly: Growth inhibition of human OVCAR-8 cells assessed as reduction in cell viability measured after 48 hrs by SRB assay. The format is functional.
For data set [19], the system named is K562. Put plainly: Induction of cell cycle arrest in human K562 cells assessed as accumulation of cells at SubG1 phase at 2.56 uM measured after 24 hrs by PI staining based flow cytometry analysis (reference value: 2.21%). Format: functional.
For data set [20], the system named is A549. Nature of the data set: Growth inhibition of human A549 cells assessed as reduction in cell viability measured after 48 hrs by SRB assay. The format is functional.
Data set [21] has as its system T47D. Put plainly: Growth inhibition of human T47D cells assessed as reduction in cell viability measured after 48 hrs by SRB assay. The format is functional.
The test system of data set [22] is HCT-116. Nature of the data set: Growth inhibition of human HCT-116 cells assessed as reduction in cell viability measured after 48 hrs by SRB assay. The format is functional.
The test system of data set [23] is SF-539. Nature of the data set: Growth inhibition of human SF-539 cells assessed as reduction in cell viability measured after 48 hrs by SRB assay. The format is functional.
Data set [24] has as its system K562. Put plainly: Induction of cell cycle arrest in human K562 cells assessed as accumulation of cells at SubG1 phase at 2.56 uM measured after 24 hrs by PI staining based flow cytometry analysis (reference value: 2.48%). Format: functional.
Data set [25] has as its system K562. Nature of the data set: Induction of cell cycle arrest in human K562 cells assessed as accumulation of cells at S phase at 5 uM measured after 24 hrs by PI staining based flow cytometry analysis (reference value: 20.42%). The format is functional.
Data set [26] deals with K562. Nature of the data set: Induction of cell cycle arrest in human K562 cells assessed as accumulation of cells at G0/G1 phase at 0.64 uM measured after 24 hrs by PI staining based flow cytometry analysis (reference value: 46.71%). Format: functional.
The test system of data set [27] is K562. Put plainly: Induction of apoptosis in human K562 cells assessed as early apoptotic cells at 5 uM incubated for 24 hrs by annexinV and propidium iodide staining based flow cytometry analysis (reference value: 0.42%). The format is functional.
The subject of data set [28] is K562. Put plainly: Induction of cell cycle arrest in human K562 cells assessed as accumulation of cells at S phase at 1.25 uM measured after 24 hrs by PI staining based flow cytometry analysis (reference value: 20.42%). The format is functional.
In data set [29] the test system is K562. Nature of the data set: Induction of autophagy in human K562 cells assessed as increase in beclin-1 level at 1.28 to 2.56 uM measured after 24 hrs by Western blotting analysis. The format is functional, cell-based. As to conditions: dose 1.28-2.56 µM.
Data set [30] concerns K562. Nature of the data set: Induction of cell cycle arrest in human K562 cells assessed as accumulation of cells at SubG1 phase at 0.64 uM measured after 24 hrs by PI staining based flow cytometry analysis (reference value: 2.48%). The format is functional.
The subject of data set [31] is K562. Nature of the data set: Induction of autophagy in human K562 cells assessed as increase in beclin-1 level at 2.5 to 5 uM measured after 24 hrs by Western blotting analysis. Format: functional, cell-based. As to conditions: dose 2.5-5 µM.
Data set [32] has as its system K562. Put plainly: Induction of cell cycle arrest in human K562 cells assessed as accumulation of cells at G0/G1 phase at 2.56 uM measured after 24 hrs by PI staining based flow cytometry analysis (reference value: 46.71%). Format: functional.
In data set [33] the test system is K562. Nature of the data set: Induction of cell cycle arrest in human K562 cells assessed as accumulation of cells at G2/M phase at 1.25 uM measured after 24 hrs by PI staining based flow cytometry analysis (reference value: 29.44%). Format: functional.
Data set [34] relates to K562. Put plainly: Induction of apoptosis in human K562 cells assessed as early apoptotic cells at 1.28 uM incubated for 24 hrs by annexinV and propidium iodide staining based flow cytometry analysis (reference value: 0.42%). The format is functional.
Data set [35] has as its system K562. Put plainly: Induction of apoptosis in human K562 cells assessed as late apoptotic cells at 0.64 uM incubated for 24 hrs by annexinV and propidium iodide staining based flow cytometry analysis (reference value: 1.34%). The format is functional.
The subject of data set [36] is K562. Put plainly: Induction of apoptosis in human K562 cells assessed as late apoptotic cells at 2.56 uM incubated for 24 hrs by annexinV and propidium iodide staining based flow cytometry analysis (reference value: 1.34%). Format: functional.
Data set [37] concerns K562. Put plainly: Induction of cell cycle arrest in human K562 cells assessed as accumulation of cells at SubG1 phase at 2.5 uM measured after 24 hrs by PI staining based flow cytometry analysis (reference value: 3.43%). The format is functional.
The subject of data set [38] is K562. Nature of the data set: Induction of apoptosis in human K562 cells assessed as late apoptotic cells at 5 uM incubated for 24 hrs by annexinV and propidium iodide staining based flow cytometry analysis (reference value: 1.342%). The format is functional.

T1 sequence (P45983 whole entry): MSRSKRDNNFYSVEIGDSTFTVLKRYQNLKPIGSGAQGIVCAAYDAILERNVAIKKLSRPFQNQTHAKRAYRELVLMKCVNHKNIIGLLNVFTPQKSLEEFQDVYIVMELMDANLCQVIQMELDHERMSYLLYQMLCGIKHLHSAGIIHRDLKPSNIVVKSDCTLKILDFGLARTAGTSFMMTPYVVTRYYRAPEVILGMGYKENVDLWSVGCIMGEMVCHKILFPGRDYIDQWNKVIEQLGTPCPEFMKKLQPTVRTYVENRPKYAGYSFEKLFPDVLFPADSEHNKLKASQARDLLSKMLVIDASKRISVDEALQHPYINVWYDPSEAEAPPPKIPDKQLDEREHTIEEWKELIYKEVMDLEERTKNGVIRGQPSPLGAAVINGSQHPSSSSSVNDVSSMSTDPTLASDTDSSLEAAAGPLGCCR

With `CC(C)(C)n1cc(-c2ccnc(NCCCNS(=O)(=O)c3ccc(Cl)cc3)c2)c(-c2cccc(O)c2)n1`, the GI50 in data set [1] was determined as 1460 nM; in data set [3], 1940 nM; in data set [7], 2350 nM; in data set [8] it was 2130 nM; in data set [9], 2460 nM; in data set [10] it was 1760 nM. Further, the GI50 in data set [11] came to 1510 nM; in [13], 2030 nM; in [15], 1520 nM; in data set [17], 1280 nM; in [18], 2220 nM; in data set [20] it was 1970 nM. For the same compound, the figures for the GI50 in data set [21], in data set [22] and in data set [23] were 1820 nM, 1670 nM and 1650 nM, respectively. For the same compound, the Activity is listed as 7.27% in data set [2]; 53% in [4]; 25.21% in data set [5]; 2.16% in data set [12]; 0.07% in data set [19]. In addition, in data set [6], the outcome was Active. The inhibition in [14] was found to be 100%. In addition, the half-maximal inhibitory concentration (IC50) in data set [16] amounted to 43.8 nM.
With `CC(C)(C)n1cc(-c2ccnc(NCCCNS(=O)(=O)c3ccc(C(F)(F)F)cc3)c2)c(-c2cccc(O)c2)n1`, the 50% growth inhibitory concentration (GI50) came out at 1460 nM in [1]; 1860 nM in data set [3]; 2690 nM in [7]; 2980 nM in [8]; 2070 nM in data set [9]; 1820 nM in data set [10]. Also, the GI50 in data set [11] amounted to 1540 nM; in [13] it was 1800 nM; in [15] it was 1470 nM; in [17], 2100 nM; in data set [18] it was 2460 nM; in data set [20], 2020 nM. The figures for the GI50 in [21], in data set [22] and in [23] were 2240 nM, 1550 nM and 1650 nM, respectively. Besides, the inhibition in data set [14] was found to be 99.5%. Moreover, the IC50 in data set [16] worked out at 142 nM.
`CC(C)(C)n1cc(-c2ccnc(NCCCNS(=O)(=O)c3cccc4ccccc34)c2)c(-c2cccc(O)c2)n1`: the GI50 in data set [1] is 1520 nM; in [3], 1930 nM; in data set [7], 2630 nM; in [8] it was 2440 nM; in [9], 2660 nM; in data set [10], 1870 nM. In addition, the GI50 in data set [11] is 1370 nM; in data set [13], 2090 nM; in data set [15], 1530 nM; in data set [17], 1480 nM; in [18] it was 2380 nM; in data set [20] it was 2290 nM. For the same compound, the figures for the GI50 in [21], in data set [22] and in [23] were 2220 nM, 1400 nM and 1830 nM, respectively. The inhibition in data set [14] is 100%. Besides, the half-inhibitory concentration (IC50) in data set [16] came to 80.3 nM.
In the case of `CC(C)(C)n1cc(-c2ccnc(NCCCNS(=O)(=O)c3ccc(Br)cc3)c2)c(-c2cccc(O)c2)n1`, the 50% growth inhibitory concentration (GI50) in [1] came out at 1460 nM; in data set [3], 1990 nM; in [7] it was 2520 nM; in data set [8], 2260 nM; in [9] it was 2310 nM; in data set [10], 1920 nM. Also, the GI50 in data set [11] was determined as 1330 nM; in [13], 1660 nM; in data set [15], 1480 nM; in data set [17], 2020 nM; in data set [18], 2430 nM; in data set [20], 2110 nM. Also, the figures for the GI50 in data set [21], in data set [22] and in [23] were 2480 nM, 1310 nM and 1700 nM, respectively. Moreover, in data set [14], the inhibition amounted to 98.8%. Moreover, the IC50 in data set [16] was 97.8 nM.
For `O=C1c2ccccc2-c2n[nH]c3cccc1c23`, the Activity stood at 2.85% in [24]; 20.04% in data set [25]; 27.69% in [26]; 1.5% in data set [27]; 19.52% in data set [28]; 4.68% in data set [30]. Moreover, the Activity worked out at 37.63% in data set [32]; 41.64% in data set [33]; 0.66% in data set [34]; 1.14% in [35]; 3.7% in data set [36]; 4.35% in [37]. Moreover, the Activity in data set [38] was 4.12%. Also, the GI50 in data set [1] was 20800 nM; in data set [3], 9860 nM; in [7] it was 21000 nM; in data set [8] it was 16000 nM; in data set [9] it was 25000 nM; in data set [10], 9620 nM. For the same compound, the GI50 in data set [11] came to 7030 nM; in data set [13], 27100 nM; in data set [15], 8040 nM; in data set [17] it was 48600 nM; in data set [18], 22000 nM; in [20] it was 14900 nM. The figures for the GI50 in data set [21], in data set [22] and in data set [23] were > 100000 nM, 44600 nM and 32200 nM, respectively. In addition, the outcome in [29] and in data set [31] was Active.
